Values of other authors, collected in patent publication US20050221324A1, “Genotoxicity analysis” (priority 2002, published 2005).

System: AL cells
Settings: producing mainly chromosomal mutations; non-genotoxic carcinogens

Which “mutagenicity in AL cells” value does the source give for arsenic here?
The value was “quite strong mutagens”.
